According to patent US20140356383A1, “ADMINISTRATION OF AN ANTI-GCC ANTIBODY-DRUG CONJUGATE AND A DNA DAMAGING AGENT IN THE TREATMENT OF CANCER” (priority 2013, published 2014):
Square brackets hold non-standard residues; d marks the D form. Peptide text beside a SMILES is read from it. * marks the point of attachment. Dolaproine = CO[C@@H]([C@@H]1CCCN1)[C@@H](C)C(=O)O; Hexanoyl(6-maleimido) = O=C1C=CC(=O)N1CCCCCC(=O)*; Dil = CC[C@H](C)[C@H](NC)[C@@H](CC(=O)O)OC; NMeV = CN[C@H](C(=O)O)C(C)C

What was measured:
PHTX-21c s.c. xenograft [1] = test: MLN0264 and 5-Fluorouracil in PHTX-21C s.c. xenografts (Study CPGC-11-EF01); format: in vivo, CB-17 SCID mice; details: for dAUC: 4 days off, reference vehicle
Procedure: (§1) Tumor volume was calculated using the formula: […]

PHTX-17c s.c. xenograft = test: MLN0264 and CPT-11 in PHTX-17C s.c. xenografts (Study CPGC-11-EF06); format: in vivo, CB-17 SCID mice; details: PHTX-17c
Procedure: as §1

PHTX-21c s.c. xenograft [2] = test: MLN0264 and CPT-11 in PHTX-21C s.c. xenografts (Study CPGC-11-EF04); details: PHTX-21c
PHTX-11c s.c. xenograft = test: MLN0264 and CPT-11 in PHTX-11c s.c. xenografts (Study CPGC-12-EF01); details: W1-W3
PHTX-09c s.c. xenograft = test: 5F9 vcMMAE and CPT-11 in PHTX-09C s.c. xenografts (Study CPGC-11-EF07)
293 GCC#2 tumors = test: Efficacy study with auristatin conjugates in 293 GCC#2 tumors, q7d×4; format: in vivo, SCID mice; details: 150 μg/kg iv q7d×4
Procedure: 293 GCC#2 tumor-bearing SCID mice were treated with 5F9 conjugates with vc MMAE, vcMMAF or mcMMAF at three doses in comparison with 209 conjugates of these toxins or with free toxins or vehicle control. Doses were administered iv on a q7d×4 schedule. Tumors were harvested at days 3, 7, 10, 13 and 17. […] Table 18 provides a summary of the results (TGI=tumor growth inhibition, T/C=treatment/control, TGD=tumor growth delay, CR/PR=complete response/partial response; p value=measure to judge statistical significance, NS=not significant).

[3] = CPT-11 10 mg/kg D1, D2 per week
[4] = CPT-11 15 mg/kg D1, D2 per week
[5] = CPT-11 10 mg/kg 2 d on 5 off i.v.
[6] = CPT-11 15 mg/kg 2 d on 5 off i.v.
[7] = PHTX-09c, CPT-11 10 mg/kg D1, 2 ×3 weeks

O=c1[nH]cc(F)c(=O)[nH]1 [5-FU, 5-Fluorouracil, reference compound]
single agent anti-tumor activity (PHTX-21c s.c. xenograft [1]; PHTX-21c, 15 mg/kg and 25 mg/kg, 3 day on/4 day off): relatively low anti-tumor activity
dAUC (PHTX-21c s.c. xenograft [1]; group E: 5-Fu 15 mg/kg 3 days on): 44.1%
dAUC (PHTX-21c s.c. xenograft [1]; group F: 5-Fu 25 mg/kg 3 days on): 52.6%

CCc1c2c(nc3ccc(OC(=O)N4CCC(N5CCCCC5)CC4)cc13)-c1cc3c(c(=O)n1C2)COC(=O)[C@]3(O)CC [CPT-11, irinotecan]
Days to 1000 mm^3 (PHTX-17c s.c. xenograft; CPT-11 10 mg/kg QD 2on 5off): >17 days
T/C (PHTX-17c s.c. xenograft; CPT-11 10 mg/kg QD 2on 5off): 0.28
TGI (PHTX-17c s.c. xenograft; CPT-11 10 mg/kg QD 2on 5off): 71.7%
Days to 1000 mm^3 (PHTX-17c s.c. xenograft; CPT-11 15 mg/kg 2 on 5off): >17 days
T/C (PHTX-17c s.c. xenograft; CPT-11 15 mg/kg 2 on 5off): 0.22
TGI (PHTX-17c s.c. xenograft; CPT-11 15 mg/kg 2 on 5off): 77.7%
Days to 1000 mm^3 (PHTX-17c s.c. xenograft; CPT-11 30 mg/kg QW): >17 days
T/C (PHTX-17c s.c. xenograft; CPT-11 30 mg/kg QW): 0.4
TGI (PHTX-17c s.c. xenograft; CPT-11 30 mg/kg QW): 60.5%
Days to 1000 mm^3 (PHTX-21c s.c. xenograft [2]; [3]): >15 days
T/C (PHTX-21c s.c. xenograft [2]; [3]): 0.22
TGI (PHTX-21c s.c. xenograft [2]; [3]): 78.4%
Days to 1000 mm^3 (PHTX-21c s.c. xenograft [2]; [4]): >15 days
T/C (PHTX-21c s.c. xenograft [2]; [4]): 0.16
TGI (PHTX-21c s.c. xenograft [2]; [4]): 84.4%
Days to 1000 mm^3 (PHTX-21c s.c. xenograft [2]; CPT-11 30 mg/kg D1 QW): >15 days
T/C (PHTX-21c s.c. xenograft [2]; CPT-11 30 mg/kg D1 QW): 0.37
TGI (PHTX-21c s.c. xenograft [2]; CPT-11 30 mg/kg D1 QW): 62.8%
single agent anti-tumor activity (PHTX-21c s.c. xenograft [2]; the two lower doses administered (10 and 15 mg/kg)): moderate to high single agent activity
Days to 1000 mm^3 (PHTX-11c s.c. xenograft; [5]): >18 days
T/C (PHTX-11c s.c. xenograft; [5]): 0.34
TGI (PHTX-11c s.c. xenograft; [5]): 65.9%
Days to 1000 mm^3 (PHTX-11c s.c. xenograft; [6]): >18 days
T/C (PHTX-11c s.c. xenograft; [6]): 0.31
TGI (PHTX-11c s.c. xenograft; [6]): 69.2%
Days to 1000 mm^3 (PHTX-11c s.c. xenograft; CPT-11 30 mg/kg (D1 QW) i.v.): >18 days
T/C (PHTX-11c s.c. xenograft; CPT-11 30 mg/kg (D1 QW) i.v.): 0.39
TGI (PHTX-11c s.c. xenograft; CPT-11 30 mg/kg (D1 QW) i.v.): 61.1%
single agent activity (PHTX-09c s.c. xenograft; PHTX-09c (FIGS. 8B and 8C)): moderate
Days to 1000 mm^3 (PHTX-09c s.c. xenograft; [7]): >23 days
T/C (PHTX-09c s.c. xenograft; [7]): 0.4
TGI (PHTX-09c s.c. xenograft; [7]): 60.3%

CC[C@H](C)[C@@H]([C@@H](CC(=O)N1CCC[C@H]1[C@H](OC)[C@@H](C)C(=O)N[C@@H](Cc1ccccc1)C(=O)O)OC)N(C)C(=O)[C@@H](NC(=O)[C@H](C(C)C)N(C)C(=O)CCCCCN1C(=O)C=CC1=O)C(C)C [Free mcMMAF, reference compound] ({Hexanoyl(6-maleimido)}-[NMeV]V[Dil][Dolaproine]F-OH)
TGI (293 GCC#2 tumors): −3.4
CR/PR (293 GCC#2 tumors; complete response/partial response): 0
T/C (293 GCC#2 tumors; treatment/control): 1.03
TGD (293 GCC#2 tumors; tumor growth delay): −1.3
